Measured values published in ChEMBL document CHEMBL1137300, “Identification of the brominated flame retardant 1,2-dibromo-4-(1,2-dibromoethyl)cyclohexane as an androgen agonist” (J Med Chem, 2006).

Legend:
Androgen receptor [1] = target: T1, Androgen receptor (Homo sapiens, UniProt P10275); experiment: Activity against human androgen receptor expressed in HepG2 cells assessed as luciferase reporter gene activation
T1 sequence (P10275 whole entry): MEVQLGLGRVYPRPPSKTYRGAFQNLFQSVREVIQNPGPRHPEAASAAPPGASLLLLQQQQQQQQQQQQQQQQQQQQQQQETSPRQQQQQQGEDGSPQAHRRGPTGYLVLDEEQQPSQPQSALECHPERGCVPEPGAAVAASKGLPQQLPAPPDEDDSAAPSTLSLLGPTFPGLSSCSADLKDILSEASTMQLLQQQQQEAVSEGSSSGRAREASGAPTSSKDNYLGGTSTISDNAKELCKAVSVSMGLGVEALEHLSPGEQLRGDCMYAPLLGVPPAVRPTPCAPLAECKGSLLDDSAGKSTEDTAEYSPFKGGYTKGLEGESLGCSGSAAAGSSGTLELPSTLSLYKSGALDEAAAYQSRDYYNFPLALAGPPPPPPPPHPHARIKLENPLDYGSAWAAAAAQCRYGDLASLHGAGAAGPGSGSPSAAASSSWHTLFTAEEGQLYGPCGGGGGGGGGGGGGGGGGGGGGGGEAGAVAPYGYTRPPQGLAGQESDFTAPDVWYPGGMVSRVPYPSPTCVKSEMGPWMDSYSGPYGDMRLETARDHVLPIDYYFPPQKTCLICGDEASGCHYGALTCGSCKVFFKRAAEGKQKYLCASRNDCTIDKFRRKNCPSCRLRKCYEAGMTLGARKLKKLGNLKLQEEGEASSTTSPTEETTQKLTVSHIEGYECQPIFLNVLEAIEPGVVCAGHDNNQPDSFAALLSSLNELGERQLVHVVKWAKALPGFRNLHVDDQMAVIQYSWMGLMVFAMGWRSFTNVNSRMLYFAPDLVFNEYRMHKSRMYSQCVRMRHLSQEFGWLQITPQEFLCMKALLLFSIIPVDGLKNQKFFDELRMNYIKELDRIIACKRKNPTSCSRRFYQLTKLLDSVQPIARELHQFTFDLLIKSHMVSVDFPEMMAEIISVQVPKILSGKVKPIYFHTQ

Androgen receptor [2] = target: T2, Androgen receptor (Rattus norvegicus, UniProt P15207); experiment: Displacement of androgen fluormone from rat androgen receptor
T2 sequence (P15207 whole entry): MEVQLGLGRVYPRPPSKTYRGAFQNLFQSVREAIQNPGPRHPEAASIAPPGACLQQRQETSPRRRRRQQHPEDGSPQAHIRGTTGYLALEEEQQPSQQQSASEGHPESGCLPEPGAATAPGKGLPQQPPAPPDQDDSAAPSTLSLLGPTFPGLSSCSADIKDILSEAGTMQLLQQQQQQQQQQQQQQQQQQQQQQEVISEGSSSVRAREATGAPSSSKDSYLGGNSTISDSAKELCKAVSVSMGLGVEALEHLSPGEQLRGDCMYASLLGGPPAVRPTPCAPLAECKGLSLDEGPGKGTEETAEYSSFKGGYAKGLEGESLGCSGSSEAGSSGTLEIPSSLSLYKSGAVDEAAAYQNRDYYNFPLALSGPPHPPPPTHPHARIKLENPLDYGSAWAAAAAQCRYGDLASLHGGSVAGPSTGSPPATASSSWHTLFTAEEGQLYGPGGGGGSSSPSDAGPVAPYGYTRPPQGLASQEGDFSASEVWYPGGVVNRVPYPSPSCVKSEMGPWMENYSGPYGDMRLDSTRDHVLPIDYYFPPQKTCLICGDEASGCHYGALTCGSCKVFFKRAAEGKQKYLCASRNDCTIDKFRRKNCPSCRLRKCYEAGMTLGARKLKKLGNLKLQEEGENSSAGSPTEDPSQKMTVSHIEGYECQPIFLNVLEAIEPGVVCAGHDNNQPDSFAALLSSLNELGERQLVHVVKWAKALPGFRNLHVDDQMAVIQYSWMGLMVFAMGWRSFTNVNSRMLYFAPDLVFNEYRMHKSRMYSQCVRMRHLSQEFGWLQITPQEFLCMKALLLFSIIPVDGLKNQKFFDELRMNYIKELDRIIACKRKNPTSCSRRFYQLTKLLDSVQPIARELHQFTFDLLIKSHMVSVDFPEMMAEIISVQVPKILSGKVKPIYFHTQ

## BrCC(Br)C1CCC(Br)C(Br)C1 (configuration not stated)
Androgen receptor [1]
  IC50: 42.7 nM
Androgen receptor [2]
  IC50: 163 nM
